Consider 4 compounds from DBAASP.

Converted amounts (≈) assume the structure as drawn.

One may read the MIC as the lowest concentration that inhibits growth of the organism. Higher therefore signals a less susceptible organism.

Test systems include Pseudomonas aeruginosa; Enterobacter cloacae; Proteus mirabilis; Serratia marcescens; Klebsiella aerogenes; Acinetobacter baumannii; Klebsiella oxytoca; Salmonella enterica; Staphylococcus aureus; Klebsiella pneumoniae; Escherichia coli E423-17.
Common to all, as to test: ≥ marks a high value that may be exact or a test limit, other limits are often not marked, values filed in µg/mL are converted to µM
For test [1], the system named is Staphylococcus saprophyticus.
In test [2] the test system is Escherichia coli ATCC 35218.
For test [3], the system named is Staphylococcus epidermidis.
Test [4] relates to Staphylococcus haemolyticus.
Test [5] deals with Candida albicans ATCC 36232.
The test system of test [6] is Staphylococcus aureus ATCC 6538.
The test system of test [7] is Proteus vulgaris ATCC 6380.
Test [8] relates to Pseudomonas aeruginosa ATCC 9027.
Test [9] deals with Escherichia coli ATCC 2592.
For test [10], the system named is Micrococcus luteus ATCC 9341.
Test [11] has as its system Staphylococcus aureus USA 300.
Test [12] concerns Klebsiella pneumoniae E406-17.
Test [13] concerns Staphylococcus aureus USA 200.
In test [14] the test system is Staphylococcus aureus MU50.
For test [15], the system named is Staphylococcus aureus Newman.
The subject of test [16] is Pseudomonas aeruginosa E411-17.
In test [17] the test system is Staphylococcus aureus UAMS-1.
Test [18] deals with Staphylococcus aureus USA 400.
Test [19] deals with Acinetobacter baumannii B28-16.
For test [20], the system named is Enterococcus faecium V286-17.
Test [21] deals with Staphylococcus aureus M838-17.
For test [22], the system named is Candida viswanathii NBRC 10321.
The test system of test [23] is Pseudomonas putida NBRC 100650.
Test [24] has as its system Staphylococcus epidermidis NBRC 12993.
Test [25] concerns Aspergillus oryzae NBRC 100959.
In test [26] the test system is Escherichia coli NBRC 3972.
Test [27] deals with Micrococcus luteus NBRC 3333.

As for `CC[C@H](C)[C@H](NC(=O)[C@H](CCCCN)NC(=O)[C@H](C)NC(=O)[C@H](CC(C)C)NC(=O)[C@H](Cc1ccccc1)NC(=O)[C@H](CCCN=C(N)N)NC(=O)[C@H](C)NC(=O)[C@H](Cc1ccc(O)cc1)NC(=O)[C@H](CCCN=C(N)N)NC(=O)[C@H](Cc1cnc[nH]1)NC(=O)[C@H](Cc1ccccc1)NC(=O)[C@H](Cc1ccc(O)cc1)NC(=O)[C@H](CCCN=C(N)N)NC(=O)[C@H](CCC(N)=O)NC(=O)[C@@H](N)Cc1ccccc1)C(=O)N[C@@H](Cc1c[nH]c2ccccc12)C(=O)N[C@@H](CCCCN)C(=O)NCC(=O)O` [FQRYFHRYARFLAKIWKG], the MIC in the test with Pseudomonas aeruginosa was 2.8 µM (≈ 6.69 µg/mL); in test [1], 10 µM (≈ 23.9 µg/mL); against Enterobacter cloacae it was 10 µM (≈ 23.9 µg/mL); in the test with Proteus mirabilis, 10 µM (≈ 23.9 µg/mL); in the test on Serratia marcescens it was 10 µM (≈ 23.9 µg/mL); against Klebsiella aerogenes, 10 µM (≈ 23.9 µg/mL). Moreover, the MIC in [2] turned out to be 0.9 µM (≈ 2.15 µg/mL); in the test with Acinetobacter baumannii it was 10 µM (≈ 23.9 µg/mL); with Klebsiella oxytoca, 3.6 µM (≈ 8.6 µg/mL); with Salmonella enterica it was 10 µM (≈ 23.9 µg/mL); in test [3], 10 µM (≈ 23.9 µg/mL); in test [4], 10 µM (≈ 23.9 µg/mL). Also, the MIC turned out to be 1.8 µM (≈ 4.3 µg/mL) with Staphylococcus aureus and 1.4 µM (≈ 3.34 µg/mL) in the test with Klebsiella pneumoniae.

For the compound `CC(C)[C@H](NC(=O)[C@H](CCCCN)NC(=O)[C@@H]1CCCN1C(=O)[C@@H](NC(=O)[C@@H](NC(=O)[C@H](CCCCN)NC(=O)[C@@H](N)CCCCN)C(C)C)C(C)C)C(=O)N[C@@H](CCCCN)C(=O)N[C@@H](Cc1ccccc1)C(=O)N[C@@H](CCCCN)C(N)=O` [KKVVPKVKFK], the MIC in test [5] is at least 83.3 µM; in [6], above 83.3 µM; in [7], at least 83.3 µM; against Staphylococcus aureus, above 83.3 µM; in test [8] it was 83.3 µM (≈ 99.9 µg/mL); in test [9], at least 83.3 µM. Besides, the MIC in test [10] is at least 83.3 µM.

In the case of `CC(C)[C@H](NC(=O)[C@H](Cc1c[nH]c2ccccc12)NC(=O)[C@H](Cc1c[nH]c2ccccc12)NC(=O)[C@H](Cc1c[nH]c2ccccc12)NC(=O)[C@H](Cc1c[nH]c2ccccc12)NC(=O)[C@H](CCCN=C(N)N)NC(=O)[C@H](CCCN=C(N)N)NC(=O)[C@@H](N)CCCN=C(N)N)C(N)=O` [RRRWWWWV], the MIC in test [11] came out at 2.83 µM (≈ 3.76 µg/mL); in test [12], 11.3 µM (≈ 15 µg/mL); in [13] it was 4 µM (≈ 5.32 µg/mL); with Escherichia coli E423-17, 2 µM (≈ 2.66 µg/mL); in [14] it was 8 µM (≈ 10.6 µg/mL); in [15] it was 4 µM (≈ 5.32 µg/mL). Moreover, the MIC in [16] was found to be 5.66 µM (≈ 7.52 µg/mL); in [17], 4 µM (≈ 5.32 µg/mL); in test [18], 4 µM (≈ 5.32 µg/mL); in test [19] it was 8 µM (≈ 10.6 µg/mL); in test [20] it was 2 µM (≈ 2.66 µg/mL); against Staphylococcus aureus it was 4 µM (≈ 5.32 µg/mL). The results for the minimal inhibitory concentration (MIC) (in test [21]; in the test on Klebsiella pneumoniae) were 3.1 µM (≈ 4.12 µg/mL) and 11.3 µM (≈ 15 µg/mL), respectively.

For the compound `CC[C@H](C)[C@H](NC(=O)[C@H](CCCCN)NC(=O)[C@H](CCCN=C(N)N)NC(=O)[C@H](CCC(=O)O)NC(=O)[C@H](CCC(=O)O)NC(=O)[C@H](CCSC)NC(=O)[C@@H](NC(=O)[C@H](CC(N)=O)NC(=O)[C@@H](N)CO)C(C)C)C(=O)N[C@@H](CCCCN)C(=O)N[C@H](C(=O)N[C@@H](Cc1ccc(O)cc1)C(=O)N[C@@H](CC(C)C)C(=O)N1CCC[C@H]1C(=O)N[C@@H](CCCN=C(N)N)C(=O)N[C@@H](CCSC)C(=O)N[C@@H](CCCCN)C(=O)N[C@@H](CCSC)C(=O)N[C@@H](CCC(=O)O)C(=O)N[C@@H](CCC(=O)O)C(=O)O)C(C)C` [SNVMEERKIKVYLPRMKMEE], the MIC in test [22], in test [23], in [24], in test [25], in test [26] and in test [27] was at least 319 µM in each case.
